Values quoted from earlier work, collected in patent publication US20200319191A1, “MOLECULAR PROFILING FOR CANCER” (Caris MPI, Inc., priority 2015, published 2020).
Where two headings read alike, the source gives them in different places.

Columns and labels:
[1] = biological target: c-Kit (Homo sapiens, UniProt P10721)
[2] = tested on: platelet-derived growth factor receptor (PDGFR)
[3] = for Evid. Level, ER Positive (IHC) / Bene. Level, ER Positive (IHC): Hormonal Agents; for sensitivity of AML tumor cells by NPM status: AML tumor cells with mutant NPM; for resistance by ALK secondary mutations: ALK secondary mutations found in NSCLC; for sensitivity by EGFRvIII expression: preliminary studies; for PGP Positive (IHC) Evid. Level: taxanes rule, Ref. No. 28; for Bene. Level, PGP Positive (IHC) / Evid. Level, PGP Positive (IHC): Anthracyclines; for benefit by PIK3CA status: PIK3CA exon 20 mutations; for response by TOPOI expression: expression of TOPOI
[4] = IHC positive: TLE3 F, TUBB3 F, PGP F
[5] = IHC positive: TLE3 F, TUBB3 F, PGP T
[6] = IHC positive: TLE3 F, TUBB3 No Data, PGP F
[7] = IHC positive: TLE3 F, TUBB3 No Data, PGP T
[8] = IHC positive: TLE3 F, TUBB3 T, PGP F
[9] = IHC positive: TLE3 F, TUBB3 T, PGP T
[10] = IHC positive: TLE3 No Data, TUBB3 F, PGP F
[11] = IHC positive: TLE3 No Data, TUBB3 F, PGP T
[12] = IHC positive: TLE3 No Data, TUBB3 No Data, PGP F
[13] = IHC positive: TLE3 No Data, TUBB3 No Data, PGP T
[14] = IHC positive: TLE3 No Data, TUBB3 T, PGP F
[15] = IHC positive: TLE3 No Data, TUBB3 T, PGP T
[16] = IHC positive: TLE3 T, TUBB3 F, PGP F
[17] = IHC positive: TLE3 T, TUBB3 F, PGP T
[18] = IHC positive: TLE3 T, TUBB3 No Data, PGP F
[19] = IHC positive: TLE3 T, TUBB3 No Data, PGP T
[20] = IHC positive: TLE3 T, TUBB3 T, PGP F
[21] = IHC positive: TLE3 T, TUBB3 T, PGP T

Sequence of c-Kit (P10721 26-976): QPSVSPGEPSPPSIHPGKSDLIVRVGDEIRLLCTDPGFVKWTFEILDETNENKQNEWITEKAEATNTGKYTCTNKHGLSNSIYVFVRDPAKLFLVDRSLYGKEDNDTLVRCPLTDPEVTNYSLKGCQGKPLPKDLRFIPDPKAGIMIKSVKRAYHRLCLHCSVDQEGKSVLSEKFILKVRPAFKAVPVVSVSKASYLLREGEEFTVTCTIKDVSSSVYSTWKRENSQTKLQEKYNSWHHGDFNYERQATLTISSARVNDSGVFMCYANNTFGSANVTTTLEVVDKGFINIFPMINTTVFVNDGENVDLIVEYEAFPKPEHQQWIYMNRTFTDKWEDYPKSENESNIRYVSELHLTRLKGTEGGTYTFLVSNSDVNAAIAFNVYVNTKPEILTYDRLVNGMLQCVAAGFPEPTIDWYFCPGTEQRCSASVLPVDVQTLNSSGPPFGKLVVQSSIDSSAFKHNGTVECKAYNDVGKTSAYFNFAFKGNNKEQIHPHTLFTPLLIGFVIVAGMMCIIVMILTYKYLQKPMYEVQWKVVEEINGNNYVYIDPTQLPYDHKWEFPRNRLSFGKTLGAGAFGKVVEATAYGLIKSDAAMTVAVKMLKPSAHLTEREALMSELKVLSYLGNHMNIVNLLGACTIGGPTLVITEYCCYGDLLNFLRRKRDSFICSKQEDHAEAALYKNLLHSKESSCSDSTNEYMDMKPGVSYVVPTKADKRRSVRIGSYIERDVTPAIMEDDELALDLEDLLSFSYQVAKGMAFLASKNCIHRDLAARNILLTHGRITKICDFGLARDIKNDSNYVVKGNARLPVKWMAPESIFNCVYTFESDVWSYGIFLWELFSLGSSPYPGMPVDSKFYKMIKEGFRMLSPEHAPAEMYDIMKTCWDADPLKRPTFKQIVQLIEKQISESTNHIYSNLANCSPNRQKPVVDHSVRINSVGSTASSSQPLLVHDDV

## Cc1ccc(NC(=O)c2ccc(CN3CCN(C)CC3)cc2)cc1Nc1nccc(-c2cccnc2)n1 [Imatinib, imatinib]
[1]
  kinase activity: block the activity
[2]
  kinase activity: block the activity

## CC(C)(C#N)c1cc(Cn2cncn2)cc(C(C)(C)C#N)c1 [anastrozole]
[3]; ER Positive (IHC)=F
  Evid. Level, ER Positive (IHC): 1
[3]; ER Positive (IHC)=T
  Bene. Level, ER Positive (IHC): 1
  Evid. Level, ER Positive (IHC): 1

## CC[C@@]1(O)C(=O)OCc2c1cc1n(c2=O)Cc2cc3ccccc3nc2-1 [camptothecin]
[3]
  sensitivity of AML tumor cells by NPM status: research shows AML tumor cells with mutant NPM are more sensitive to

## Cc1cc(Nc2ncc(Cl)c(Nc3ccccc3S(=O)(=O)C(C)C)n2)c(OC(C)C)cc1C1CCNCC1 [ceritinib]
[3]
  resistance by ALK secondary mutations: mutations found in NSCLC have been associated with acquired resistance to ALK

## C[C@@H](Oc1cc(-c2cnn(C3CCNCC3)c2)cnc1N)c1c(Cl)ccc(F)c1Cl [crizotinib]
[3]
  resistance by ALK secondary mutations: mutations found in NSCLC have been associated with acquired resistance to ALK
[3]; ROS-rearranged NSCLC patients, clinical data
  sensitivity and response by ROS1 status: improved response to the MET/ALK/ROS inhibitor, crizotinib.

## COc1cc2ncnc(Nc3ccc(F)c(Cl)c3)c2cc1NC(=O)/C=C/CN1CCCCC1 [dacomitinib]
[3]
  sensitivity by EGFRvIII expression: higher sensitivity to erlotinib and gefitinib, as well as to pan-Her inhibitors including

## COc1cccc2c1C(=O)c1c(O)c3c(c(O)c1C2=O)C[C@@](O)(C(C)=O)C[C@@H]3O[C@H]1C[C@H](N)[C@H](O)[C@H](C)O1 [daunorubicin]
[3]
  sensitivity of AML tumor cells by NPM status: research shows AML tumor cells with mutant NPM are more sensitive to

## CC(=O)O[C@@]12CO[C@@H]1C[C@H](O)[C@@]1(C)C(=O)[C@H](O)C3=C(C)[C@@H](OC(=O)[C@H](O)[C@@H](NC(=O)OC(C)(C)C)c4ccccc4)C[C@@](O)([C@@H](OC(=O)c4ccccc4)[C@H]21)C3(C)C [docetaxel]
[3]; [4]
  PGP Positive (IHC) Bene. Level: 1
[3]; [5]
  PGP Positive (IHC) Bene. Level: 2
[3]; [6]
  PGP Positive (IHC) Bene. Level: 1
[3]; [7]
  PGP Positive (IHC) Bene. Level: 3
[3]; [8]
  PGP Positive (IHC) Bene. Level: 1
[3]; [9]
  PGP Positive (IHC) Bene. Level: 3
[3]; [10]
  PGP Positive (IHC) Bene. Level: 1
[3]; [11]
  PGP Positive (IHC) Bene. Level: 2
[3]; [12]
  PGP Positive (IHC) Bene. Level: 1
[3]; [13]
  PGP Positive (IHC) Bene. Level: 3
[3]; [14]
  PGP Positive (IHC) Bene. Level: 1
[3]; [15]
  PGP Positive (IHC) Bene. Level: 3
[3]; [16]
  PGP Positive (IHC) Bene. Level: 1
[3]; [17]
  PGP Positive (IHC) Bene. Level: 2
[3]; [18]
  PGP Positive (IHC) Bene. Level: 1
[3]; [19]
  PGP Positive (IHC) Bene. Level: 2
[3]; [20]
  PGP Positive (IHC) Bene. Level: 1
[3]; [21]
  PGP Positive (IHC) Bene. Level: 2
[3]
  PGP Positive (IHC) Evid. Level: 3

## COc1cccc2c1C(=O)c1c(O)c3c(c(O)c1C2=O)C[C@@](O)(C(=O)CO)C[C@@H]3O[C@H]1C[C@H](N)[C@H](O)[C@H](C)O1 [doxorubicin, reference compound]
[3]; PGP Positive (IHC)=F
  Bene. Level, PGP Positive (IHC): 1
  Evid. Level, PGP Positive (IHC): 2
[3]; PGP Positive (IHC)=T
  Bene. Level, PGP Positive (IHC): 2
  Evid. Level, PGP Positive (IHC): 2

## CNC(=O)c1ccc(N2C(=S)N(c3ccc(C#N)c(C(F)(F)F)c3)C(=O)C2(C)C)cc1F [enzalutamide]
[3]; specific mutations in AR (e.g. F876L, AR-V7)
  resistance by AR mutations: F876L, AR-V7) are associated with resistance to newer-generation, AR-targeted therapies

## COc1cccc2c1C(=O)c1c(O)c3c(c(O)c1C2=O)C[C@@](O)(C(=O)CO)C[C@@H]3O[C@H]1C[C@H](N)[C@@H](O)[C@H](C)O1 [epirubicin]
[3]; PGP Positive (IHC)=F
  Bene. Level, PGP Positive (IHC): 1
  Evid. Level, PGP Positive (IHC): 2
[3]; PGP Positive (IHC)=T
  Bene. Level, PGP Positive (IHC): 2
  Evid. Level, PGP Positive (IHC): 2

## C#Cc1cccc(Nc2ncnc3cc(OCCOC)c(OCCOC)cc23)c1 [erlotinib]
[3]
  sensitivity by EGFRvIII expression: higher sensitivity to erlotinib and gefitinib, as well as to pan-Her inhibitors including
[3]; T790M in exon 20
  response by EGFR secondary mutation: mutation, T790M in exon 20, confers reduced response. Non-small cell lung cancer cancer
[3]; in-frame deletions in exon 19 or point mutations in exon 21
  sensitivity by EGFR gain-of-function mutations: point mutations in exon 21, confer sensitivity to first- and second-generation tyrosine

## CO[C@H]1C[C@@H]2CC[C@@H](C)[C@@](O)(O2)C(=O)C(=O)N2CCCC[C@H]2C(=O)O[C@H]([C@H](C)C[C@@H]2CC[C@@H](OCCO)[C@H](OC)C2)CC(=O)[C@H](C)/C=C(\C)[C@@H](O)[C@@H](OC)C(=O)[C@H](C)C[C@H](C)/C=C/C=C/C=C/1C [everolimus]
[3]
  benefit by PIK3CA status: associated with benefit from mTOR inhibitors (everolimus, temsirolimus). Evidence

## C=C1C[C@@H]2[C@H](CC[C@]3(C)C(=O)CC[C@@H]23)[C@@]2(C)C=CC(=O)C=C12 [exemestane]
[3]; ER Positive (IHC)=F
  Evid. Level, ER Positive (IHC): 1
[3]; ER Positive (IHC)=T
  Bene. Level, ER Positive (IHC): 1
  Evid. Level, ER Positive (IHC): 1

## C[C@]12CC[C@@H]3c4ccc(O)cc4C[C@@H](CCCCCCCCC[S+]([O-])CCCC(F)(F)C(F)(F)F)[C@H]3[C@@H]1CC[C@@H]2O (some centres unmarked) [fulvestrant]
[3]; ER Positive (IHC)=F
  Evid. Level, ER Positive (IHC): 1
[3]; ER Positive (IHC)=T
  Bene. Level, ER Positive (IHC): 1
  Evid. Level, ER Positive (IHC): 1

## COc1cc2ncnc(Nc3ccc(F)c(Cl)c3)c2cc1OCCCN1CCOCC1 [gefitinib]
[3]
  sensitivity by EGFRvIII expression: higher sensitivity to erlotinib and gefitinib, as well as to pan-Her inhibitors including

## Nc1ccn([C@@H]2O[C@H](CO)[C@@H](O)C2(F)F)c(=O)n1 [gemcitabine]
[3]; high RRM1 level
  resistance by RRM1 level: activity. High RRM1 level is associated with resistance to gemcitabine.

## CCc1c2c(nc3ccc(OC(=O)N4CCC(N5CCCCC5)CC4)cc13)-c1cc3c(c(=O)n1C2)COC(=O)[C@]3(O)CC [irinotecan]
[3]
  response by TOPOI expression: DNA molecule. Expression of TOPOI has been associated with response to TOPOI

## N#Cc1ccc(C(c2ccc(C#N)cc2)n2cncn2)cc1 [letrozole]
[3]; ER Positive (IHC)=F
  Evid. Level, ER Positive (IHC): 1
[3]; ER Positive (IHC)=T
  Bene. Level, ER Positive (IHC): 1
  Evid. Level, ER Positive (IHC): 1

## CC(=O)O[C@]1(C(C)=O)CC[C@H]2[C@@H]3C=C(C)C4=CC(=O)CC[C@]4(C)[C@H]3CC[C@@]21C [megestrol acetate]
[3]; ER Positive (IHC)=F
  Evid. Level, ER Positive (IHC): 1
[3]; ER Positive (IHC)=T
  Bene. Level, ER Positive (IHC): 1
  Evid. Level, ER Positive (IHC): 1

## CCOc1cc2ncc(C#N)c(Nc3ccc(OCc4ccccn4)c(Cl)c3)c2cc1NC(=O)/C=C/CN(C)C [neratinib]
[3]
  sensitivity by EGFRvIII expression: higher sensitivity to erlotinib and gefitinib, as well as to pan-Her inhibitors including

## O=C(O)C(=O)O.[NH-][C@@H]1CCCC[C@H]1[NH-].[Pt+2] [oxaliplatin]
[3]; APC wild type patients, metastatic setting, colorectal
  disease control rate by APC status: event in colorectal tumorigenesis. APC wild type patients have shown better disease

## CC(=O)O[C@H]1C(=O)[C@@]2(C)[C@H]([C@H](OC(=O)c3ccccc3)[C@]3(O)C[C@H](OC(=O)[C@H](O)[C@@H](NC(=O)c4ccccc4)c4ccccc4)C(C)=C1C3(C)C)[C@]1(OC(C)=O)CO[C@@H]1C[C@@H]2O [paclitaxel]
[3]; [4]
  PGP Positive (IHC) Bene. Level: 1
[3]; [5]
  PGP Positive (IHC) Bene. Level: 2
[3]; [6]
  PGP Positive (IHC) Bene. Level: 1
[3]; [7]
  PGP Positive (IHC) Bene. Level: 3
[3]; [8]
  PGP Positive (IHC) Bene. Level: 1
[3]; [9]
  PGP Positive (IHC) Bene. Level: 3
[3]; [10]
  PGP Positive (IHC) Bene. Level: 1
[3]; [11]
  PGP Positive (IHC) Bene. Level: 2
[3]; [12]
  PGP Positive (IHC) Bene. Level: 1
[3]; [13]
  PGP Positive (IHC) Bene. Level: 3
[3]; [14]
  PGP Positive (IHC) Bene. Level: 1
[3]; [15]
  PGP Positive (IHC) Bene. Level: 3
[3]; [16]
  PGP Positive (IHC) Bene. Level: 1
[3]; [17]
  PGP Positive (IHC) Bene. Level: 2
[3]; [18]
  PGP Positive (IHC) Bene. Level: 1
[3]; [19]
  PGP Positive (IHC) Bene. Level: 2
[3]; [20]
  PGP Positive (IHC) Bene. Level: 1
[3]; [21]
  PGP Positive (IHC) Bene. Level: 2
[3]
  PGP Positive (IHC) Evid. Level: 3

## CC/C(=C(\c1ccccc1)c1ccc(OCCN(C)C)cc1)c1ccccc1 [tamoxifen]
[3]; ER Positive (IHC)=F
  Evid. Level, ER Positive (IHC): 1
[3]; ER Positive (IHC)=T
  Bene. Level, ER Positive (IHC): 1
  Evid. Level, ER Positive (IHC): 1

## CO[C@H]1C[C@@H]2CC[C@@H](C)[C@@](O)(O2)C(=O)C(=O)N2CCCC[C@H]2C(=O)O[C@H]([C@H](C)C[C@@H]2CC[C@@H](OC(=O)C(C)(CO)CO)[C@H](OC)C2)CC(=O)[C@H](C)/C=C(\C)[C@@H](O)[C@@H](OC)C(=O)[C@H](C)C[C@H](C)/C=C/C=C/C=C/1C [temsirolimus]
[3]
  benefit by PIK3CA status: associated with benefit from mTOR inhibitors (everolimus, temsirolimus). Evidence

## CC[C@@]1(O)C(=O)OCc2c1cc1n(c2=O)Cc2cc3c(CN(C)C)c(O)ccc3nc2-1 [topotecan]
[3]
  response by TOPOI expression: DNA molecule. Expression of TOPOI has been associated with response to TOPOI

## CN(C)CCOc1ccc(/C(=C(/CCCl)c2ccccc2)c2ccccc2)cc1 [toremifene]
[3]; ER Positive (IHC)=F
  Evid. Level, ER Positive (IHC): 1
[3]; ER Positive (IHC)=T
  Bene. Level, ER Positive (IHC): 1
  Evid. Level, ER Positive (IHC): 1

## CCCS(=O)(=O)Nc1ccc(F)c(C(=O)c2c[nH]c3ncc(-c4ccc(Cl)cc4)cc23)c1F [vemurafenib]
[3]; patients treated with BRAF inhibitor, likely paradoxical activation of the MAPK pathway
  tumors that develop in treated patients: cutaneous squamous cell carcinomas and keratoacanthomas that develop in patients treated

## CCC1=C[C@@H]2CN(C1)Cc1c([nH]c3ccccc13)[C@@](C(=O)OC)(c1cc3c(cc1OC)N(C)[C@H]1[C@@](O)(C(=O)OC)[C@H](OC(C)=O)[C@]4(CC)C=CCN5CC[C@]31[C@@H]54)C2 [vinorelbine]
[3]; loss of FBXW7, tubulin-targeting agents
  resistance by loss of FBXW7: loss of FBXW7 confers resistance to tubulin-targeting agents like paclitaxel or vinorelbine,
